In general, IC50 refers to the concentration at which inhibition is half-maximal.

The target in the experiment is C5aR (Homo sapiens (Human), UniProt P21730). As to the kind of experiment: Calcium mobilization (U937/C5aR or HEK293/C5aR cells, FLIPR). The class given is cell-based. Particulars: agonist human C5a at EC80, FLIPR. As for the experimental part:
U937/C5aR cells or HEK293/C5aR cells were washed by PBS and suspended in growth media at the density of 1×10^6 cells/ml. […] to the 384-well plate and culture for overnight. Transfer 250 nl compound solution to the cell plate using Echo, incubate for 60 min. Cells were added with Fluo-4 Direct™ dye and incubate for 50 min at 37° C. 5% CO2 and 10 m at room temperature. Place the cell plate into […] (Molecular Devices). Transfer 10 μl of 5-fold EC80 concentrations of agonist human C5a to the cell plates.
Background: Calcium flux is commonly read through the fluorescence of an indicator in the cells.

Chain of C5aR (P21730 whole entry): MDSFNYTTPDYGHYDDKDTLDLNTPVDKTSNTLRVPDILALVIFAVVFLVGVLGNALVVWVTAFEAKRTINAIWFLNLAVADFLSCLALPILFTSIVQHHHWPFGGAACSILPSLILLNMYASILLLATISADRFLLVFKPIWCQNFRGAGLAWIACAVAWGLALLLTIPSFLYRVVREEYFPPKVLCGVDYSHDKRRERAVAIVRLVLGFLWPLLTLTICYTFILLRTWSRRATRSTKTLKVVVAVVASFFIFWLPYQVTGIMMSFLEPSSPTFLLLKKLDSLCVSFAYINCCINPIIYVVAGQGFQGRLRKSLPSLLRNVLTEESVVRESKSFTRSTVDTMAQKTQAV

For the compound `Cc1cccc(F)c1C(=O)N1[C@@H]2COC[C@@H]2CC(C(=O)Nc2cccnc2)[C@@H]1c1ccc(NC2CCOCC2)cc1` (mixture of isomers) [Compound 128, cis-1-(2-fluoro-6-methylbenzoyl)-N-(pyridin-3-yl)-2-(4-((tetrahydro-2H-pyran-4-yl)amino)phenyl)octahydrofuro[3,4-b]pyridine-3-carboxamide], the IC50 lay within 2 to 10 µM.
In the case of `Cc1cccc(F)c1C(=O)N1C2CCC[C@@H]2C[C@H](C(=O)Nc2cnc(-n3nccn3)c(Cl)c2)[C@@H]1c1ccc(NC2CCCC2)cc1` (relative stereo) [Compound 75, cis-N-(5-chloro-6-(2H-1,2,3-triazol-2-yl)pyridin-3-yl)-2-(4-(cyclopentylamino)phenyl)-1-(2-fluoro-6-methylbenzoyl)octahydro-1H-cyclopenta[b]pyridine-3-carboxamide] it was above 10 µM; in that of `Cc1ccc(NC(=O)[C@H]2C[C@H]3CCC[C@H]3N(C(=O)c3cnn(C)c3)C2c2ccc(NC3CCCC3)cc2)cc1C(F)(F)F` (relative stereo) [Compound 112, cis-2-(4-(cyclopentylamino)phenyl)-1-(1-methyl-1H-pyrazole-4-carbonyl)-N-(4-methyl-3-(trifluoromethyl)phenyl)octahydro-1H-cyclopenta[b]pyridine-3-carboxamide], above 10 µM.
For the compound `Cc1cccc(F)c1C(=O)N1C(c2ccc(NC3CCN(C)CC3)cc2)C(C(=O)Nc2ccc3c(cnn3C)c2)C[C@@H]2CCC[C@@H]21` (relative stereo) [Compound 117, cis-1-(2-fluoro-6-methylbenzoyl)-N-(1-methyl-1H-indazol-5-yl)-2-(4-((1-methylpiperidin-4-yl)amino)phenyl)octahydro-1H-cyclopenta[b]pyridine-3-carboxamide], the IC50 fell in the range of 2 to 10 µM.
For the compound `Cc1cccc(F)c1C(=O)N1C(c2ccc(NC3CCOCC3)cc2)C(C(=O)Nc2cnn(C)c2)C[C@@H]2COC[C@@H]21` (relative stereo) [Compound 127, cis-1-(2-fluoro-6-methylbenzoyl)-N-(1-methyl-1H-pyrazol-4-yl)-2-(4-((tetrahydro-2H-pyran-4-yl)amino)phenyl)octahydrofuro[3,4-b]pyridine-3-carboxamide], the IC50 fell in the range of 2 to 10 µM.
In the case of `Cc1ccc(NC(=O)C2C[C@@H]3CN(CC(F)(F)F)C[C@@H]3N(C(=O)c3c(C)cccc3F)C2c2ccc(NC3CCCC3)cc2)cc1C(F)(F)F` (relative stereo) [Compound 206, cis-2-(4-(cyclopentylamino)phenyl)-1-(2-fluoro-6-methylbenzoyl)-N-(4-methyl-3-(trifluoromethyl)phenyl)-6-(2,2,2-trifluoroethyl)octahydro-1H-pyrrolo[3,4-b]pyridine-3-carboxamide] it was 2 to 10 µM; in that of `Cc1ccc(NC(=O)C2CC3CCCC3N(C(=O)c3c(C)cccc3F)C2c2ccc(NC3CCCC3)cc2)cc1C(F)(F)F` (stereo in doubt) [Compound 48, (2S,3R,4aS,7aS)-2-(4-(cyclopentylamino)phenyl)-1-(2-fluoro-6-methylbenzoyl)-N-(4-methyl-3-(trifluoromethyl)phenyl)octahydro-1H-cyclopenta[b]pyridine-3-carboxamide], 2 to 10 µM; in that of `Cc1ccc(NC(=O)[C@@H]2CCCN(c3ccncn3)[C@H]2c2ccc(NC3CCCC3)cc2)cc1C(F)(F)F` [Compound 3, (2R,3R)-2-(4-(cyclopentylamino)phenyl)-N-(4-methyl-3-(trifluoromethyl)phenyl)-1-(pyrimidin-4-yl)piperidine-3-carboxamide], 2 to 10 µM.
With `Cc1cc(C)cc(S(=O)(=O)N2CCC[C@H](C(=O)Nc3ccc(C)c(C(F)(F)F)c3)[C@@H]2c2ccc(NC3CCCC3)cc2)c1` [Compound 12, (2R,3S)-2-(4-(cyclopentylamino)phenyl)-1-((3,5-dimethylphenyl)sulfonyl)-N-(4-methyl-3-(trifluoromethyl)phenyl)piperidine-3-carboxamide], the IC50 is above 10 µM.
In the case of `COC(=O)c1cccc(C)c1S(=O)(=O)N1CCC[C@H](C(=O)Nc2ccc(C)c(C(F)(F)F)c2)[C@@H]1c1ccc(NC2CCCC2)cc1` [Compound 21, methyl 2-(((2R,3S)-2-(4-(cyclopentylamino)phenyl)-3-((4-methyl-3-(trifluoromethyl)phenyl)carbamoyl)piperidin-1-yl)sulfonyl)-3-methylbenzoate] it was above 10 µM.
In the case of `COC(=O)c1ccccc1S(=O)(=O)N1CCC[C@H](C(=O)Nc2ccc(C)c(C(F)(F)F)c2)[C@@H]1c1ccc(NC2CCCC2)cc1` [Compound 31, methyl 2-(((2R,3S)-2-(4-(cyclopentylamino)phenyl)-3-((4-methyl-3-(trifluoromethyl)phenyl)carbamoyl)piperidin-1-yl)sulfonyl)benzoate] it was 2 to 10 µM.
In the case of `Cc1ccc(NC(=O)[C@@H]2CCC3CCc4ccccc4C(=O)N3[C@@H]2c2ccc(NC3CCCC3)cc2)cc1C(F)(F)F` (stereo partly drawn) [Compound 45, (3R,4S)-4-(4-(cyclopentylamino)phenyl)-N-(4-methyl-3-(trifluoromethyl)phenyl)-6-oxo-1,2,3,4,6,11,12,12a-octahydrobenzo[e]pyrido[1,2-a]azepine-3-carboxamide] it was 2 to 10 µM.
Turning to `Cc1cccc(F)c1C(=O)N1[C@@H]2CCC[C@@H]2C[C@H](C(=O)NC2CCN(C)CC2)[C@@H]1c1ccc(NC2CCCC2)cc1` [Compound 53, (2R,3S,4aR,7aR)-2-(4-(cyclopentylamino)phenyl)-1-(2-fluoro-6-methylbenzoyl)-N-(1-methylpiperidin-4-yl)octahydro-1H-cyclopenta[b]pyridine-3-carboxamide], the IC50 was in the range of 2 to 10 µM.
Regarding `Cc1ccc(NC(=O)[C@H]2CCCN(Cc3c(C)cccc3F)[C@H]2c2ccc(NC3CCCC3)cc2)cc1C(F)(F)F` [Compound 159, (2R,3S)-2-(4-(cyclopentylamino)phenyl)-1-(2-fluoro-6-methylbenzyl)-N-(4-methyl-3-(trifluoromethyl)phenyl)piperidine-3-carboxamide], the concentration for half-maximal inhibition (IC50) lay in the range of 2 to 10 µM.
In the case of `Cc1ccc(NC[C@H]2CCCN(C(=O)c3c(C)cccc3F)[C@H]2c2ccc(NC3CCCC3)cc2)cc1C(F)(F)F` [Compound 160, ((2R,3R)-2-(4-(cyclopentylamino)phenyl)-3-(((4-methyl-3-(trifluoromethyl)phenyl)amino)methyl)piperidin-1-yl)(2-fluoro-6-methylphenyl)methanone] it was 2 to 10 µM; in that of `Cc1ccc(NC(=O)[C@H]2CCCN(c3ncnc4ccccc34)[C@H]2c2ccc(N(C(=O)OCc3ccccc3)C3CCCC3)cc2)cc1C(F)(F)F` [Compound 163, benzyl cyclopentyl(4-((2R,3S)-3-((4-methyl-3-(trifluoromethyl)phenyl)carbamoyl)-1-(quinazolin-4-yl)piperidin-2-yl)phenyl)carbamate], 2 to 10 µM.
Take `Cc1ccc(NC(=O)[C@H]2CCCN(c3nccc4nccnc34)[C@H]2c2ccc(N(C(=O)OCc3ccccc3)C3CCCC3)cc2)cc1C(F)(F)F` [Compound 165, benzyl cyclopentyl(4-((2R,3S)-3-((4-methyl-3-(trifluoromethyl)phenyl)carbamoyl)-1-(pyrido[3,4-b]pyrazin-5-yl)piperidin-2-yl)phenyl)carbamate]: the half-maximal inhibitory concentration (IC50) lay within 2 to 10 µM.
In the case of `Cc1ccc(NC(=O)[C@H]2CCCN(c3ncnc4cnccc34)[C@H]2c2ccc(N(C(=O)OCc3ccccc3)C3CCCC3)cc2)cc1C(F)(F)F` [Compound 167, benzyl cyclopentyl(4-((2R,3S)-3-((4-methyl-3-(trifluoromethyl)phenyl)carbamoyl)-1-(pyrido[3,4-d]pyrimidin-4-yl)piperidin-2-yl)phenyl)carbamate] it was 2 to 10 µM.
In the case of `Cc1ccc(NC(=O)[C@H]2CCCN[C@H]2c2ccc(N(c3nccc4scnc34)C3CCCC3)cc2)cc1C(F)(F)F` [Compound 169, (2R,3S)-2-(4-(cyclopentyl(thiazolo[4,5-c]pyridin-4-yl)amino)phenyl)-N-(4-methyl-3-(trifluoromethyl)phenyl)piperidine-3-carboxamide] it was 2 to 10 µM; in that of `Cc1ccc(NC(=O)[C@@H]2CCCN[C@H]2c2ccc(N(c3nccc4cccnc34)C3CCCC3)cc2)cc1C(F)(F)F` [Compound 171, (2R,3R)-2-(4-(cyclopentyl(1,7-naphthyridin-8-yl)amino)phenyl)-N-(4-methyl-3-(trifluoromethyl)phenyl)piperidine-3-carboxamide], 2 to 10 µM; in that of `Cc1ccc(NC(=O)[C@H]2CCCN[C@H]2c2ccc(N(c3nccc4nccnc34)C3CCCC3)cc2)cc1C(F)(F)F` [Compound 172, (2R,3S)-2-(4-(cyclopentyl(pyrido[3,4-b]pyrazin-5-yl)amino)phenyl)-N-(4-methyl-3-(trifluoromethyl)phenyl)piperidine-3-carboxamide], 2 to 10 µM.
In the case of `Cc1ccc(NC(=O)[C@H]2CCCN[C@H]2c2ccc(N(c3nccc4ccsc34)C3CCCC3)cc2)cc1C(F)(F)F` [Compound 173, (2R,3S)-2-(4-(cyclopentyl(thieno[2,3-c]pyridin-7-yl)amino)phenyl)-N-(4-methyl-3-(trifluoromethyl)phenyl)piperidine-3-carboxamide] it was 2 to 10 µM.
As for `Cc1ccc(NC(=O)[C@@H]2CCCN[C@H]2c2ccc(N(c3ncnc4cccnc34)C3CCCC3)cc2)cc1C(F)(F)F` [Compound 174, (2R,3R)-2-(4-(cyclopentyl(pyrido[3,2-d]pyrimidin-4-yl)amino)phenyl)-N-(4-methyl-3-(trifluoromethyl)phenyl)piperidine-3-carboxamide], the IC50 was 2 to 10 µM.
`Cc1ccc(NC(=O)[C@H]2CCCN[C@H]2c2ccc(N(c3nccc4ccccc34)C3CCCC3)cc2)cc1C(F)(F)F` [Compound 175, (2R,3S)-2-(4-(cyclopentyl(isoquinolin-1-yl)amino)phenyl)-N-(4-methyl-3-(trifluoromethyl)phenyl)piperidine-3-carboxamide]: the IC50 was in the range of 2 to 10 µM.

The record behind these values is patent US20240043439A1, “COMPOUNDS AS C5AR INHIBITORS” (Kira Pharmaceuticals (Suzhou) Ltd., priority 2020, published 2024).
